Test results: patent US20240247021A1, “CRYSTAL FORMS OF KUDING SAPONIN A COMPOUND, PHARMACEUTICAL COMPOSITION AND USE THEREOF” (SHANGHAI KE PHARMACEUTICAL CO., LTD, priority 2021, published 2024)

Assays:
[1] = Conditions under which the crystal forms exist stably; format: physicochemical
[2] = Thermogravimetric analysis (TGA); format: physicochemical; details: 10 K/min, nitrogen
From the text: Thermogravimetric analysis, or TGA for short, refers to a thermal analysis method for measuring the relationship of the mass of a sample to be detected with the change of temperature or time at a programmed temperature, and it is used to study information related to the quality of the sample, such as thermal stability, components of intermediate products possibly generated, etc. It is often used in combination with other thermal analysis methods for comprehensive thermal analysis. Methods for performing thermogravimetric analysis on the crystals are well known to those skilled in the art. In the present invention, the crystal forms A, C, and J of Kudinoside A are determined by using a thermogravimetric analyzer, and the specific measurement conditions are shown in Table 6.

[3] = Hygroscopicity test by dynamic vapor sorption (DVS); format: physicochemical; details: for weight change when the relative humidity is in the range of 0%-80% / hygroscopicity: DVS graph (FIGS. 1d, 2d, 3d); for hygroscopicity: judgment criteria of Table 7; for Increase in mass (relative humidity: 0%-80%) / Degree of hygroscopicity: DVS, 25° C., relative humidity 0%-80%; for Degree of hygroscopicity: criteria of Table 12
Protocol: Dynamic vapor sorption (DVS) is a test method for analyzing the moisture sorption performance of a sample and recording the moisture sorption isotherm, and it determines the stability of a compound by identifying its sorption capacity for moisture. Methods for performing dynamic vapor sorption analysis on the crystals are well known to those skilled in the art. In the present invention, the hygroscopicity of the crystal forms A, C, and J of Kudinoside A is determined by using a dynamic vapor sorption instrument, and the specific measurement conditions are shown in Table 7.
About 10 mg of each of the crystal forms A, C, and J obtained in Examples 1-3 was tested for its hygroscopicity using a dynamic vapor sorption (DVS) instrument (test conditions: a temperature of 25° C. and a relative humidity of 0%-80%), and the hygroscopicity of each crystal form was judged using the criteria shown in Table 12 below. For the steps and the judgment criteria of the hygroscopicity test, reference is made to the General Requirement 9103-Guidelines for Hygroscopicity in Pharmacopoeia of the People's Republic of China 2020 (Volume IV).

[4] = format: physicochemical; details: uncovered, in the dark, 10 days; long-term (25±2° C., RH 65%±10%) and accelerated (40±2° C., RH 75%±10%) conditions
Protocol: 25 mg of the crystal form J was spread in a culture dish and left to stand, with the culture dish uncovered, in the dark for 10 days under long-term conditions (temperature: 25±2° C.; relative humidity: 65%±10%) and acceleration conditions (temperature: 40±2° C.; relative humidity: 75%±10%), and then the crystal form J was subjected to X-ray powder diffraction assay and thermogravimetric analysis. The X-ray powder diffractometer used and parameters thereof are shown in Table 4; the thermogravimetric analyzer used and parameters thereof are shown in Table 6.

[5] = tested on: asthma mouse models with obvious pulmonary inflammation; test: Anti-inflammatory effect in asthma mouse models (eosinophilic granulocytes in alveolar lavage fluid, flow cytometry); format: in vivo, Balb/c mice; details: for Proportion of eosinophilic granulocytes (EOs): white blood cells of alveolar lavage fluid, day 39, negative control group 17.05
Protocol: Firstly, Kudinoside A solutions at different concentrations were prepared, and specific steps were as follows: • (1) Preparation of 15 mg/mL stock solution of the crystal form A of Kudinoside A: 0.50990 g of the crystal form A of Kudinoside A obtained in Example 1 was dissolved in 33.993 mL of propylene glycol under sonication to obtain about […] of 15 mg/mL stock solution of the crystal form A of Kudinoside A, which was stored at room temperature in the dark; • (2) Preparation of 1.5 mg/mL Kudinoside A solution: 2 mL of the 15 mg/mL stock solution of the crystal form A of Kudinoside A was measured out and diluted with 18 mL of 25% propylene glycol to obtain 20 mL of 1.5 mg/mL Kudinoside A solution, and the solution was freshly prepared before use. • (3) Preparation of 0.3 mg/mL Kudinoside A solution: 4 mL of the 1.5 mg/mL Kudinoside A solution was measured out and diluted with 16 mL of 32.5% propylene glycol to obtain 20 mL of 0.3 mg/mL Kudinoside A solution, and the solution was freshly prepared before use. • (4) Preparation of 0.06 mg/mL Kudinoside A solution: 3 mL of the 0.3 mg/mL Kudinoside A solution was measured out and diluted with 12 mL of 32.5% propylene glycol to obtain 15 mL of […] Kudinoside A solution, and the solution was freshly prepared before use.
Then, asthma mouse models with obvious pulmonary inflammation were constructed: 100 μL of 6 mg/mL chicken ovalbumin and 4 mg of aluminum hydroxide were injected intraperitoneally to Balb/c mice on day 1, 100 μL of 3.6 mg/mL chicken ovalbumin and 4 mg of aluminum hydroxide were injected on day 8, 100 μL of 1 mg/mL chicken ovalbumin and 4 mg of aluminum hydroxide were injected on day 15, and 6 mL of 2% chicken ovalbumin was administered by nebulization for exciting of 30 min every day from day 20 to day 23, thus constructing asthma mouse models with obvious pulmonary inflammation. For the mice in the blank control group, 100 μL of PBS was used instead of chicken ovalbumin.
Finally, the nebulization treatment was performed: from day 24, the Kudinoside A solutions at different concentrations (0.06 mg/mL, 0.3 mg/mL, and 1.5 mg/mL) were each administered by nebulization twice daily (30 min for each time, 12 mL in total) for treatment, and 6 mL of 2% chicken ovalbumin was administered by nebulization for exciting of 30 min 1 h after the nebulization treatment, and the administration and excitation were performed for 15 days according to this scheme; sampling was carried out 24 h after the last administration and excitation experiment, i.e., on day 39, and the Kudinoside A solution at the corresponding nebulization treatment concentration was administered twice (30 min for each time, 12 mL in total) for treatment before the sampling. The above was the scheme for the experimental groups of the nebulization treatment with Kudinoside A at different doses, and the mice in the negative control group were administered with 30% propylene glycol instead of Kudinoside A for nebulization.
Flow cytometry was adopted to detect proportion of eosinophilic granulocytes (EOs) in white blood cells of mouse alveolar lavage fluid samples. The blank group had 15 mice, the negative control group had 12 mice, and the high-, medium-, and low-concentration Kudinoside A experimental groups had 18 mice, 13 mice, and 14 mice, respectively.

[6] = tested on: bronchial smooth muscle; test: Relaxation effect on bronchial smooth muscle (bronchial ring tension); set-up: species or system C57BL/6J mice; details: for Average percentage of tension relaxation: bronchial rings pre-constricted, 20 minutes after adding
Protocol: Firstly, Kudinoside A solutions with different concentrations were prepared: 0.3253 g of the crystal form A of the Kudinoside A obtained in Example 1 was dissolved in 1 mL of dimethyl sulfoxide (DMSO) to prepare a stock solution of the crystal form A of Kudinoside A, and then the stock solution was diluted in sequence with DMSO into solutions of the crystal form A of Kudinoside A at concentrations of 1 μM, 3.2 μM, 10 μM, and 32 μM.
Then, bronchial rings were prepared: C57BL/6J mice aged 6 weeks were killed by breaking the neck, left and right bronchi were taken out and subjected to bronchia dissection under a stereomicroscope, and the obtained left and right bronchi were cut into bronchial rings with a length of about 2 mm.
Furthermore, the tension of the bronchial ring was balanced: the bronchial ring was fixed with two metal wires and suspended in a water bath at 37° C. containing 5 mL of balanced salt solution (Kreb solution), and a mixed gas containing 5% of carbon dioxide and 95% of oxygen was continuously introduced; then the tension of the bronchial ring was balanced using a tension transducer and re-balanced after pre-stimulation with 60 mM potassium chloride.
Finally, determination of the airway tension and drug administration were performed: the instrument was calibrated, and the detection system was zeroed; a tension value A was recorded when the tension of the mouse was stable; 5 μL of 10 mM […] was added to 5 mL of Kreb solution to make the final concentration to be 10 μM, and 5 μL of each of the solutions of the crystal form A of Kudinoside A at different concentrations (1 μM, 3.2 μM, 10 μM, and 32 μM) was added separately when the constriction tension of the bronchial ring reached the peak; the change of the bronchial tension was observed and recorded, and the percentage of the airway tension relaxation was calculated, as shown in Table 22. The average tension value 1 minute before adding the solution of Kudinoside A is recorded as B, the average tension value 20 minutes after adding Kudinoside A is recorded as C, and the percentage of airway tension relaxation is (B−C)/(B−A).

C[C@@H]1O[C@@H](O[C@H]2[C@H](O[C@H]3CC[C@]4(C)[C@H]5C[C@H](O)C6=C7[C@]8(CC[C@](C)(OC8=O)[C@@]7(C)O)CC[C@@]6(C)[C@]5(C)CC[C@H]4C3(C)C)OC[C@H](O)[C@@H]2O[C@@H]2O[C@H](CO)[C@@H](O)[C@H](O)[C@H]2O)[C@H](O)[C@H](O)[C@H]1O [crystal form C, Kudinoside A]
conditions under which the crystal form exists stably [1]: can exist stably as a dry powder at room temperature
decomposition temperature [2]: about 315 °C
weight change when the relative humidity is in the range of 0%-80% [3]: about 1.8%
hygroscopicity [3]: slightly hygroscopic
Increase in mass (relative humidity: 0%-80%) [3]: 1.8%
Degree of hygroscopicity [3]: slightly hygroscopicity
Degree of hygroscopicity ([3]; listed as C): Slightly hygroscopic (The increase in mass is less than 2% but not less than 0.2%)

C[C@@H]1O[C@@H](O[C@H]2[C@H](O[C@H]3CC[C@]4(C)[C@H]5C[C@H](O)C6=C7[C@]8(CC[C@](C)(OC8=O)[C@@]7(C)O)CC[C@@]6(C)[C@]5(C)CC[C@H]4C3(C)C)OC[C@H](O)[C@@H]2O[C@@H]2O[C@H](CO)[C@@H](O)[C@H](O)[C@H]2O)[C@H](O)[C@H](O)[C@H]1O [crystal form J, Kudinoside A]
conditions under which the crystal form exists stably [1]: can exist stably as a dry powder at room temperature
decomposition temperature [2]: about 324 °C
characteristic peaks on the X-ray powder diffraction pattern (crystal form change) [4]: not changed
weight loss condition (TGA) [4]: not changed
weight change when the relative humidity is in the range of 0%-80% [3]: about 4.7%
hygroscopicity [3]: hygroscopic
Increase in mass (relative humidity: 0%-80%) [3]: 4.7%
Degree of hygroscopicity [3]: hygroscopic
Degree of hygroscopicity ([3]; listed as J): Hygroscopic (The increase in mass is less than 15% but not less than 2%)

3β-12α-19α-trihydroxy-ursane-13(18)-ene-28,20β-lactone-3-O-[β-D-glucosyl-(1→3)-[α-L-rham nosyl-(1→2)]-α-L-arabinoside [Kudinoside A]
Proportion of eosinophilic granulocytes (EOs) ([5]; 0.06 mg/mL solution by nebulization twice daily): 10.14
Proportion of eosinophilic granulocytes (EOs) ([5]; 0.3 mg/mL solution by nebulization twice daily): 9.56
Proportion of eosinophilic granulocytes (EOs) ([5]; 1.5 mg/mL solution by nebulization twice daily): 10.81
anti-inflammatory effect (conclusion) ([5]; asthma mouse models): certain anti-inflammatory effects
proportion of eosinophilic granulocytes compared with the negative control group ([5]; each dose (0.06, 0.3, 1.5 mg/mL)): decreases
relaxation effect on bronchial smooth muscle ([6]; 1 μM): no relaxation effect
relaxation effect on bronchial smooth muscle ([6]; 3.2 μM, 10 μM, and 32 μM): relaxed to a certain degree
Average percentage of tension relaxation ([6]; Concentration of Kudinoside A 1 μM): −3.57%
Average percentage of tension relaxation ([6]; Concentration of Kudinoside A 3.2 μM): 21.40%
Average percentage of tension relaxation ([6]; Concentration of Kudinoside A 10 μM): 42.93%
Average percentage of tension relaxation ([6]; Concentration of Kudinoside A 32 μM): 50.09%
